One may read the IC50 as the concentration needed to halve the response being measured.

≈ marks a conversion by molar mass, not a printed value.

Consider five molecules from patent US20250082761A1, “DUAL-TARGETED RNA POLYMERASE INHIBITORS: CONJUGATES OF BENZOXAZINO- AND SPIRO-RIFAMYCINS WITH N ALPHA-AROYL-N-ARYL-[…]” (priority 2021, published 2025).

The test system of series [1] is CYP3A4. Briefly: in vitro. Conditions: male, human, hepatocytes.
The subject of series [2] is Mycobacterium avium ATCC 25291. The series is described as follows: Microplate Alamar Blue MIC assay, M. avium. Conditions: unit not given. The series is classed as cell-based. In general terms: Resazurin is reduced to fluorescent resorufin, in cell work by metabolically active cells.
The test system of series [3] is Mycobacterium tuberculosis H37Rv. The series is described as follows: microbe, parasite or virus in culture. The series is classed as cell-based. The settings on record: read-out: antibacterial activity M. tuberculosis H37Rv MIC.
Series [4] concerns Mycobacterium abscessus IDR-1400012185. The class given is cell-based. Set-up: unit not given here.

In series [1], `[2H]C([2H])(c1ccccc1)[C@@H](NC(=O)c1ccccc1F)C(=O)Nc1cc(F)ccc1N1CCN(c2cc(O)c3nc4c5c6c7c(C)c(O)c5c(=O)c(c-4oc3c2)NC(=O)/C(C)=C\C=C\[C@H](C)[C@H](O)[C@@H](C)[C@@H](O)[C@@H](C)[C@H](OC(C)=O)[C@H](C)[C@@H](OC)/C=C/O[C@@](C)(O7)C6=O)CC1` [IX-511a, 3'-hydroxy-benzoxazinorifamycin S-(IX-370a) conjugate] registered an IC50 of 10 µM. Further, in series [2], the “antibacterial activity M. avium ATCC 25291” value is 0.024. The MIC in series [3] is 0.002 µg/mL (≈ 0.00158 µM). Further, the “antibacterial activity M. abscessus IDR-1400012185” value in series [4] is recorded as 1.56.

Consider `[2H]C([2H])(c1ccccc1)C(NC(=O)c1ccccc1F)C(=O)Nc1cc(F)ccc1N1CCC2(CC1)N=C1C(=C3NC(=O)/C(C)=C\C=C\[C@H](C)[C@H](O)[C@@H](C)[C@@H](O)[C@@H](C)[C@H](OC(C)=O)[C@H](C)[C@@H](OC)/C=C/O[C@]4(C)Oc5c(C)c(O)c(c1c5C4=O)C3=O)N2` (stereo partly drawn) [IX-515, spirorifamycin S-(IX-513) conjugate], for which the IC50 in series [1] was above 10 µM. Besides, the “antibacterial activity M. avium ATCC 25291” value in series [2] came to 0.78. Further, the MIC in series [3] worked out at 0.031 µg/mL (≈ 0.0265 µM). Also, the “antibacterial activity M. abscessus IDR-1400012185” value in series [4] worked out at 6.25.

For the molecule `[2H]C([2H])(c1ccccc1)[C@@H](NC(=O)c1ccccc1F)C(=O)Nc1cc(F)ccc1N1CCN(c2ccc3nc4c5c6c7c(C)c(O)c5c(=O)c(c-4oc3c2)NC(=O)/C(C)=C\C=C\[C@H](C)[C@H](O)[C@@H](C)[C@@H](O)[C@@H](C)[C@H](OC(C)=O)[C@H](C)[C@@H](OC)/C=C/O[C@@](C)(O7)C6=O)CC1` [IX-516a, benzoxazinorifamycin S-(IX-370a) conjugate], the IC50 in series [1] came out at 10 µM. The MIC in series [3] is 0.031 µg/mL (≈ 0.0248 µM). In addition, the “antibacterial activity M. abscessus IDR-1400012185” value in series [4] is reported as 3.13.

On to `[2H]C([2H])(c1ccccc1)[C@@H](NC(=O)c1ccccc1F)C(=O)Nc1cc(F)ccc1N1CCN(c2cc(O)c3nc4c5c6c7c(C)c(O)c5c(=O)c(c-4oc3c2)NC(=O)/C(C)=C\C=C\[C@H](C)[C@H](O)[C@@H](C)[C@@H](O)[C@@H](C)[C@H](O)[C@H](C)[C@@H](OC)/C=C/O[C@@](C)(O7)C6=O)CC1` [IX-519a, desacetyl-3′-hydroxy-benzoxazinorifamycin S-(IX-370a) conjugate], for which the MIC in series [3] was determined as 0.024 µg/mL (≈ 0.0196 µM).

As to `CO[C@H]1/C=C/O[C@@]2(C)Oc3c(C)c(O)c4c(O)c(c(/C=N/N5CCN(C)CC5)c(O)c4c3C2=O)NC(=O)/C(C)=C\C=C\[C@H](C)[C@H](O)[C@@H](C)[C@@H](O)[C@@H](C)[C@H](OC(C)=O)[C@@H]1C` [rifampin, reference compound], the “antibacterial activity M. avium ATCC 25291” value in series [2] is 0.024. Besides, the MIC in series [3] turned out to be 0.063 µg/mL (≈ 0.0766 µM). The “antibacterial activity M. abscessus IDR-1400012185” value in series [4] amounted to 1.56.
